In brackets after ≈: the same amount, converted by molar mass. Like-named read-outs stand apart in the source and are kept apart here.
Legend:
C. albicans ATCC 14053 = test: Broth macrodilution MIC/MFC; format: cell-based, Candida albicans
Description: (§1) TMPN was screened against yeasts by the broth macrodilution assay according to the NCCLS [7]. Yeasts were suspended and diluted as recommended to yield final inocula ranging from 0.5-2.5×10^3 cfu/ml. Tests were performed in sterile 12 by 75 mm plastic tubes containing two-fold dilutions of TMPN in 0.165 M morpholinepropanesulfonic acid buffered RPMI 1640 medium (pH 7.0). One tube was again left drug free (but contained an equivalent volume of DMSO) for a turbidity control. Tubes were incubated without agitation at the appropriate temperature (see Fungal Strains section above). MICs were determined after 72 h for Cryptococcus and after 48 h for other yeast genera. The MIC was defined as the lowest concentration of TMPN that inhibited all visible growth of the test organism (optically clear).
(§2) Minimum fungicidal concentrations (MFCs) were determined by subculturing 0.1 ml from each tube with no visible growth in the MIC broth macrodilution series onto the appropriate drug-free plates (see Fungal Strains section above).

[1] = test system: Flucytosine-resistant C. albicans ATCC 32354; test: Broth macrodilution MIC/MFC; format: cell-based, Candida albicans
Description: as §1, §2

[2] = test system: C. parapsilosis ATCC 22019; test: Broth macrodilution MIC/MFC; format: cell-based, Candida parapsilosis
Description: as §1, §2

C. parapsilosis (10) = test: Broth macrodilution MIC/MFC; format: cell-based, Candida parapsilosis
Description: as §1, §2

[3] = test system: Trichosporon cutaneum ATCC 28592; test: Broth macrodilution MIC/MFC; format: cell-based
Description: as §1, §2

[4] = test system: Rhodotorula mucilaginosa ATCC 9449; test: Broth macrodilution MIC/MFC; format: cell-based
Description: as §1, §2

[5] = test system: Filobasidium uniguttulatum ATCC 24227; test: Broth macrodilution MIC/MFC; format: cell-based
Description: as §1, §2

[6] = test system: Blastoschizomyces capitalus ATCC 10663; test: Broth macrodilution MIC/MFC; format: cell-based
Description: as §1, §2

K. apiculate ATCC 9774 = test: Broth macrodilution MIC/MFC; format: cell-based
Description: as §1, §2

Candida albicans (7) = test: Broth macrodilution MIC/MFC; format: cell-based
Description: as §1, §2

[7] = test system: Fluconazole-resistant Cryptococcus neoformans (4); test: Broth macrodilution MIC/MFC; format: cell-based
Description: as §1, §2

[8] = test system: Kluyveromyces marxianus ATCC 365534; test: Broth macrodilution MIC/MFC; format: cell-based
Description: as §1, §2

P388 leukemia = test: Sulforhodamine B cancer cell growth inhibition; format: cell-based, murine; details: Mus musculus, 48 h, read-out: GI50 (inhibition of 50% of cell growth)
Description: (§3) An investigation TMPN's in vitro antineoplastic activity was also conducted. This investigation included an analysis of both cell growth, and of the effects of TMPN upon tubulin. Inhibition of cancer cell growth was assessed using the Sulforhodamine B assay as previously described. Briefly, cells in 5% fetal calf serum/RPMI-1640 were inoculated into 96 well plates, incubated 24 h and 10-fold dilutions of TMPN added. After a 48 h incubation, plates were fixed with trichloroacetic acid, washed, stained with Sulforhodamine B and read with an automated microtiter plate reader.

T. inkin ATCC 18020 = test: Broth macrodilution MIC/MFC; format: cell-based, Trichosporon inkin; details: for MFC: Trichosporon inkin ATCC 18020; for MIC: Trichosporon inkin
Description: as §1, §2
Possible host effects were also evaluated. Broth macrodilution assays were performed with RPMI medium prepared at pH 5, pH 6, and pH 7, and in RPMI medium with and without 50% normal human serum (Lampire Biological Labs). The pH experiments were performed twice on separate days.

C. krusei (10) = test: Broth macrodilution MIC/MFC; format: cell-based, Candida krusei
Description: as §1, §2

[9] = test system: murine P388 lymphocytic leukemia cell line and six human cancer cell lines; test: Sulforhodamine B cancer cell growth inhibition (summary over lines); format: cell-based
Description: as §3

[10] = test system: Amphotericin B-resistant C. lusitaniae ATCC 42720; test: Broth macrodilution MIC/MFC; format: cell-based, Candida lusitaniae
Description: as §1, §2

T. mucoides ATCC 90046 = test: Broth macrodilution MIC/MFC; format: cell-based, Trichosporon mucoides
Description: as §1, §2

[11] = test system: all 60 Candida spp. clinical isolates; test: Broth macrodilution MFC/MIC ratios, combined Candida isolates; format: cell-based; details: all 60 Candida spp. clinical isolates combined
Description: as §1, §2

[12] = test system: Epidermophyton floccosum ATCC 52066; test: Broth macrodilution MIC/MFC; format: cell-based
C. laurentii ATCC 34142 = test: Broth macrodilution MIC/MFC; format: cell-based, Cryptococcus laurentii
Description: as §1, §2

C. laurentii ATCC 18803 = test: Broth macrodilution MIC/MFC; format: cell-based, Cryptococcus laurentii
Description: as §1, §2

C. laurentii ATCC 66036 = test: Broth macrodilution MIC/MFC; format: cell-based, Cryptococcus laurentii
Description: as §1, §2

COc1cc(C=C[N+](=O)[O-])cc(OC)c1OC [TMPN, 1-(3′,4′,5′-trimethoxyphenyl)-2-nitro-ethylene]
MFC Range (C. albicans ATCC 14053): 16 µg/mL (≈ 66.9 µM)
MIC Range (C. albicans ATCC 14053): 16 µg/mL (≈ 66.9 µM)
MFC Range [1]: 16 µg/mL (≈ 66.9 µM)
MIC Range [1]: 16 µg/mL (≈ 66.9 µM)
MFC Range [2]: 32 µg/mL (≈ 134 µM)
MIC Range [2]: 16 µg/mL (≈ 66.9 µM)
MIC Range (C. parapsilosis (10)): 16 to 32 µg/mL
MFC Range [3]: 8 µg/mL (≈ 33.4 µM)
MIC Range [3]: 4 µg/mL (≈ 16.7 µM)
MFC Range [4]: 8 µg/mL (≈ 33.4 µM)
MIC Range [4]: 4 µg/mL (≈ 16.7 µM)
MFC Range [5]: 2 µg/mL (≈ 8.36 µM)
MIC Range [5]: 0.5 µg/mL (≈ 2.09 µM)
MFC Range [6]: 32 µg/mL (≈ 134 µM)
MIC Range [6]: 8 µg/mL (≈ 33.4 µM)
MFC Range (K. apiculate ATCC 9774): 2 µg/mL (≈ 8.36 µM)
MIC Range (K. apiculate ATCC 9774): 1 µg/mL (≈ 4.18 µM)
share of isolates with MFC/MIC ratio <2 (Candida albicans (7); C. albicans clinical isolates): 71%
MIC Range (Candida albicans (7); Candida albicans (7)): 4 to 32 µg/mL
share of isolates with MFC/MIC ratio ≦2 (Candida albicans (7); Candida albicans clinical isolates): 71%
MFC Range [7]: 4 to 16 µg/mL
MIC Range [7]: 4 to 8 µg/mL
MFC Range [8]: 4 µg/mL (≈ 16.7 µM)
MIC Range [8]: 4 µg/mL (≈ 16.7 µM)
GI50 (P388 leukemia): 4.15 µg/mL (≈ 17.3 µM)
MFC (T. inkin ATCC 18020; ATCC18020, pH 6, pH6, read-out: MFC): 16 µg/mL (≈ 66.9 µM)
MFC (T. inkin ATCC 18020; ATCC18020, pH 7, pH7, read-out: MFC): 16 µg/mL (≈ 66.9 µM)
MFC (T. inkin ATCC 18020; ATCC18020, no serum, read-out: MFC): 16 µg/mL (≈ 66.9 µM)
MFC (T. inkin ATCC 18020; ATCC18020, pH 5, read-out: MFC): 8 µg/mL (≈ 33.4 µM)
MFC Range (T. inkin ATCC 18020; T. inkin ATCC 18020): 16 µg/mL (≈ 66.9 µM)
MIC Range (T. inkin ATCC 18020; T. inkin ATCC 18020): 8 µg/mL (≈ 33.4 µM)
MFC (T. inkin ATCC 18020; pH 5, repeat experiment): 8 µg/mL (≈ 33.4 µM)
MFC (T. inkin ATCC 18020; pH6, repeat experiment): 16 µg/mL (≈ 66.9 µM)
MFC (T. inkin ATCC 18020; pH7, repeat experiment): 16 µg/mL (≈ 66.9 µM)
MIC (T. inkin ATCC 18020; ATCC18020, Trichosporon inkin ATCC 18020, 50% human serum): > 64 µg/mL
MIC (T. inkin ATCC 18020; ATCC18020, Trichosporon inkin ATCC 18020, no serum): 8 µg/mL (≈ 33.4 µM)
MIC (T. inkin ATCC 18020; ATCC18020, pH 5, Trichosporon inkin ATCC 18020, pH 5): 4 µg/mL (≈ 16.7 µM)
MIC (T. inkin ATCC 18020; ATCC18020, pH 5, Trichosporon inkin ATCC 18020, pH 5, repeat experiment): 4 µg/mL (≈ 16.7 µM)
MIC (T. inkin ATCC 18020; ATCC18020, pH 6, Trichosporon inkin ATCC 18020, pH6): 8 µg/mL (≈ 33.4 µM)
MIC (T. inkin ATCC 18020; ATCC18020, pH 6, Trichosporon inkin ATCC 18020, pH6, repeat experiment): 8 µg/mL (≈ 33.4 µM)
MIC (T. inkin ATCC 18020; ATCC18020, pH 7, Trichosporon inkin ATCC 18020, pH7): 8 µg/mL (≈ 33.4 µM)
MIC (T. inkin ATCC 18020; ATCC18020, pH 7, Trichosporon inkin ATCC 18020, pH7, repeat experiment): 8 µg/mL (≈ 33.4 µM)
MFC 50% (MFC at which 50% of the strains are killed) (C. krusei (10); C. krusei (10)): 32 µg/mL
MFC 90% (MFC at which 90% of the strains are killed) (C. krusei (10); C. krusei (10)): 32 µg/mL
MFC Range (C. krusei (10); C. krusei (10)): 16 to 64 µg/mL
MIC Range (C. krusei (10); C. krusei (10)): 8 to 16 µg/mL
share of isolates with MFC/MIC ratio <2 (C. krusei (10); C. krusei clinical isolates): 70%
MIC50 (C. krusei (10); Pichia kudriavzevii, C. krusei (10), read-out: MIC 50% (MIC at which 50% of the strains are inhibited)): 8 µg/mL (≈ 33.4 µM)
MIC90 (C. krusei (10); Pichia kudriavzevii, C. krusei (10), read-out: MIC 90% (MIC at which 90% of the strains are inhibited)): 16 µg/mL (≈ 66.9 µM)
GI50 ([9]; Mus musculus, P388, murine P388 and six human cancer cell lines, read-out: GI50 values, range over cell lines): 1 to 4 µg/mL (≈ 4.18 to 16.7 µM)
GI50 values, range over cell lines ([9]; murine P388 and six human cancer cell lines): 1.1 to 4.1 µg/mL
MFC Range [10]: 16 µg/mL (≈ 66.9 µM)
MIC Range [10]: 16 µg/mL (≈ 66.9 µM)
MFC Range (T. mucoides ATCC 90046): 32 µg/mL (≈ 134 µM)
MIC Range (T. mucoides ATCC 90046): 16 µg/mL (≈ 66.9 µM)
share of isolates with MFC/MIC ratio ≦2 [11]: 47%
share of isolates with MFC/MIC ratio ≦4 [11]: 60%
MIC Range [12]: 2 µg/mL (≈ 8.36 µM)
MFC Range (C. laurentii ATCC 34142): 32 µg/mL (≈ 134 µM)
MIC Range (C. laurentii ATCC 34142): 32 µg/mL (≈ 134 µM)
MFC Range (C. laurentii ATCC 18803): 32 µg/mL (≈ 134 µM)
MIC Range (C. laurentii ATCC 18803): 16 µg/mL (≈ 66.9 µM)
MFC Range (C. laurentii ATCC 66036): 32 µg/mL (≈ 134 µM)
MIC Range (C. laurentii ATCC 66036): 16 µg/mL (≈ 66.9 µM)
